One experiment relates to Male Sprague-Dawley rats. Put plainly: Rat elevated zero maze model of anxiety. The experiment is classed as in vivo. The note with it: for frequency of stretched attend postures (SAPs): 30 min before 5-min test; for dose at which switch to an anxiolytic effect was shown (magnitude of reduction in SAPs): ip, rat zero maze. The text has this:
The rat zero-maze model is a refined alternative to the plus-maze, the most widely used animal model of anxiety, and consists of an elevated annular platform, divided equally into four quadrants. Two opposite quadrants are enclosed by Perspex walls on both the inner and the outer edges of the platform, while the remaining two opposite quadrants are open being enclosed only by a Perspex “lip”. Animals will show a preference for the closed areas, and avoidance of the open sections is assumed to stem from a rodent's natural aversion to open, exposed spaces. A reduction in the amount of activity on the open areas is considered to reflect an increase in anxiety. The ethologically-based behavior stretched attend postures (SAP) from closed to open quadrants is assessed as an index of anxiety. Increase in SAPs is indicative of an anxiogenic effect and decreases in SAPs is indicative of an anxiolytic effect. Shepherd, J K; Grewel, S S; Fletcher, A; Bill, D J; Dourish, C T (1994) Behavioural and pharmacological validation of the elevated “zero-maze” as an animal model of anxiety. Psychopharmacol., 116:56-64.
Male Sprague-Dawley 200-250 g (Envigo UK) rats were used. Animals were group-housed (5 per cage; cage size: 40×40×20 cm) in a temperature-controlled environment (22±2° C.), under a 12 h light-dark cycle (lights on: 08:00 hours) for one week prior to testing. Food and water were freely available. Number of animals per group=5. Animals were moved into the experimental room 16-24 hours before testing.
The elevated 0-maze comprises a black Perspex annular platform (105 cm diameter, 10 cm width) elevated to 65 cm above ground level, divided equally into four quadrants. Two opposite quadrants are enclosed by clear red Perspex walls (27 cm high) on both the inner and outer edges of the platform, while the remaining two opposite quadrants are surrounded only by a Perspex “lip” (1 cm high) which serves as a tactile guide to animals on these open areas.
Subjects were weighed and tail marked before being injected. After a specified pre-treatment time, subjects were placed in a closed quadrant and a 5-min test period were recorded on videotape for subsequent analysis. The maze was cleaned with 5% methanol/water solution and dried thoroughly between test sessions. Behavioural measures comprise percentage time spent on the open areas (% TO) and frequency of stretched attend postures (SAP) from closed to open quadrants. Since the control groups were all treated identically with the same vehicle these were combined to increase power. The Chlordiazepoxide groups were also treated identically with the same dose so these were also combined to increase power. Animals are scored as being in the open area when all four paws were in an open quadrant and in the closed area only when all four paws have passed over the open-closed divide. All testing were carried out between 9.00 and 16.00 hours.
Chlordiazepoxide was formulated in Vehicle 1 (saline) to a concentration of 1.2 mg/mL to provide a dose of 6 mg/kg when administered ip in 5 mL/kg dosing volumes.
35 male Sprague-Dawley rats in treatment groups of 5, were intraperitoneally dosed with either Vehicle 1 (saline) or Rac-MBDB at 1 of 5 dose levels (2.5, 5, 10, 15 & 30 mg/kg) or chlordiazepoxide (6 mg/kg) in 5 mL/kg injection volumes. Thirty min later at T-0, rats were individually placed in a closed arm of the zero-maze and behavior assessed by a “blind” observer using remote video monitoring over the subsequent 5 min. The animals were then removed and the maze carefully wiped with 5% methanol/water solution before the next test was begun.
35 male Sprague-Dawley rats in treatment groups of 5, were intraperitoneally dosed with either Vehicle 1 (saline) or R-MBDB at 1 of 5 dose levels (2.5, 5, 10, 15 & 30 mg/kg) or chlordiazepoxide (6 mg/kg) in 5 mL/kg injection volumes. […]

Experiment [1] concerns participants diagnosed with at least moderate post-traumatic stress disorder (PTSD). Put plainly: Double-blind, randomized, placebo-controlled clinical trial of MBDB-assisted psychotherapy in PTSD. The experiment is classed as in vivo, human. The note with it: results that "may" be observed; for change in CAPS-5 assessment compared to the placebo group: at Study Conclusion. As for the experimental part:
A multicenter, randomized, double-blind, placebo-controlled trial is conducted to assess the efficacy and safety of MBDB-assisted psychotherapy versus psychotherapy with placebo control in participants diagnosed with at least moderate post-traumatic stress disorder (PTSD). Rationale
This multicenter, randomized, double-blind, placebo-controlled trial is conducted at various sites in the United States with IRB approval from each study site. A flexible dose of MBDB hydrochloride salt or placebo, followed by a supplemental half-dose unless contraindicated by patient's previous response or medical history, is also administered during the Treatment Period with psychotherapy in at least 3 blinded monthly Experimental Sessions. The Supplemental Dose extends the duration of drug effects on the participants during an Experimental Session. MBDB test groups are further subdivided into specific groups receiving only racemic MBDB hydrochloride salt, S-MBDB hydrochloride salt, or R-MBDB hydrochloride salt. An optional Risk Evaluation and Mitigation Strategy (REMS) Protocol may be implemented for the racemic MBDB, S-MBDB, R-MBDB, and placebo-groups. The Treatment Period lasts for approximately 12 weeks. During the Treatment Period, each Experimental Session is followed by three Intervening Sessions of non-drug psychotherapy. Each Experimental Session involves an overnight stay. The Primary Outcome measure, the change in Clinician Administered PTSD Scale for DSM-5 (CAPS-5), is determined by a blinded Independent Rater (IR) pool multiple times throughout the study. The study consists of separate periods for each participant. Initially, prospective participants undergo a Screening Period involving an initial eligibility assessment, a medical history intake, informed consent, and enrollment of eligible participants. Next, a Preparation Period is undertaken for enrolled participants involving medication tapering and clinical baseline assessments to confirm each participant meets enrollment criteria. As part of the Preparation Period, a detailed assessment of co-morbidities to PTSD is recorded. Participants may remain on prescribed courses of selective serotonin reuptake inhibitor (SSRI) or serotonin and norepinephrine reuptake inhibitor (SNRI) treatment. Dosages and/or frequency of administration of a prescribed SSRI or SNRI may be adjusted to fit within study parameters. Participants may be required to taper a prescribed course of medication in order to maintain eligibility within the study. The Treatment Period consists of three monthly Experimental Sessions and associated Intervening Sessions of integrative behavioral psychotherapy. The Treatment Period lasts approximately 12 weeks. Following the Treatment Period is a Follow-up Period and Study Conclusion. During the Follow-up Period and Study Conclusion, participants complete 4 weeks with no study visits, followed by a Study Conclusion visit.
This study compares the effects of three blinded Experimental Sessions of psychotherapy in combination with flexible doses of MBDB or placebo administered as described below. Non-drug preparatory and intervening psychotherapy sessions are also included. Patient's weight is determined for dosage calculation. Initial dose is 180 mg unless this will result in a dosage of less than 1.5 mg/kg of patient weight. Initial dose thereby adjusted upward in 50 mg increments to deliver the lowest dose possible of at least 1.5 mg/kg of patient weight. Initial dose for Experimental Session 2 and 3 is cumulative dose calculated by adding the initial dose plus REMS protocol dose used the previous Experimental Session for each patient.
The primary objective of this study is to evaluate the efficacy and safety of MBDB treatment combined with psychotherapy to treat moderate to severe PTSD compared to identical psychotherapy combined with placebo treatment. […]

The conditions of experiment [2]: cited from earlier work.

As to `CC[C@H](Cc1ccc2c(c1)OCO2)NC` [R-MBDB], in the experiment with Male Sprague-Dawley rats (10 mg/kg ip), the “frequency of stretched attend postures (SAPs)” value (from here on “frequency”) is “produced a consistent level of SAPs similar to the 5 mg/kg”. Also, in the experiment on Male Sprague-Dawley rats (15 mg/kg ip), the “frequency” value is “showed a reduction in the number of SAPs compared to lower doses”. The “frequency” value in the experiment with Male Sprague-Dawley rats (30 mg/kg ip, vs vehicle) was “decreased the frequency of SAPs as effectively as the benzodiazepine chlordiazepoxide”. For the same compound, the “frequency” value in the experiment on Male Sprague-Dawley rats (30 mg/kg ip, vs vehicle, listed as R MBDB) is reported as “significantly reduced the number of SAPs”. Further, the “dose at which switch to an anxiolytic effect was shown (magnitude of reduction in SAPs)” value with Male Sprague-Dawley rats is given as 15 mg/kg. Also, in experiment [1], the “change in CAPS-5 assessment compared to the placebo group” value was “significant mean reduction”, the “clinician-rated functional impairment score as measured by SDS compared to placebo-treated controls” value is given as “significant improvement”, the “daytime sleepiness as measured by ESS” value is “significant improvement” and the “depression as measured by HAM-D compared to placebo-treated controls” value is “significant improvement”.
Take `CC[C@@H](Cc1ccc2c(c1)OCO2)NC` [S-MBDB]: the “frequency” value in the experiment on Male Sprague-Dawley rats (5 mg/kg ip, vs vehicle) is reported as “reached significance”; in the experiment with Male Sprague-Dawley rats (10 mg/kg ip) it was “showed a rapid reduction in total SAPs”; in the experiment on Male Sprague-Dawley rats (15 mg/kg ip), “showed a reduction in the number of SAPs compared to lower doses”; in the experiment on Male Sprague-Dawley rats (30 mg/kg ip, vs vehicle), “decreased the frequency of SAPs as effectively as the benzodiazepine chlordiazepoxide”; with Male Sprague-Dawley rats (30 mg/kg ip, vs vehicle, listed as S MBDB), “significantly reduced the number of SAPs”. Further, in the experiment with Male Sprague-Dawley rats, the “dose at which switch to an anxiolytic effect was shown (magnitude of reduction in SAPs)” value was 10 mg/kg. Further, in experiment [1], the “change in CAPS-5 assessment compared to the placebo group” value is reported as “significant mean reduction”. For the same compound, in experiment [1], the “clinician-rated functional impairment score as measured by SDS compared to placebo-treated controls” value was “significant improvement”. Further, in experiment [1], the “daytime sleepiness as measured by ESS” value was “significant improvement”. Besides, in experiment [1], the “depression as measured by HAM-D compared to placebo-treated controls” value was “significant improvement”.
Take `CCC(Cc1ccc2c(c1)OCO2)NC` (stereo not drawn) [MBDB, 1-(benzo[d][1,3]dioxol-5-yl)-N-methylbutan-2-amine]: the “Coming Down, time after dose” value in experiment [2] (adapted from PiHKAL 1991) was around 90 min. Further, the “Oral MBDB dose, drug activity level Very Strong” value in experiment [2] (oral) is reported as at least 350 mg.
